Laboratory results as given in US11103488B2, “Methods of treating autoimmune, respiratory and inflammatory disorders by inhalation of roflumilast N-oxide” (Incozen Therapeutics Pvt. Ltd., priority 2013, dated 2021).
Where two headings read alike, the source gives them in different places.

Key:
[1] = system: neutrophil infiltration (LPS-induced neutrophilia in BALF); assay: Lipopolysaccharide (LPS) induced pulmonary neutrophilia; type: in vivo, female Sprague-Dawley rat; conditions: for ED50: Rattus norvegicus, Neutrophil, read-out: 50% inhibition (ED50) dose, neutrophil infiltration
Description: Roflumilast was prepared as a suspension in a suitable vehicle for oral administration. For intratracheal administration, roflumilast or roflumilast N-oxide was prepared as a dry powder mixture and administered by using a dry powder Insufflator (Penn-Century, USA) Animals were anaesthetized with ketamine and LPS solution was administered intratracheally one hour after roflumilast (at a dose of 0.3, 1, 3, and 10 mg/kg orally), or 30 minutes after roflumilast (at a dose of 10, 30 and 100 μg/kg i.t) or roflumilast N-oxide administration (at a dose of 10, 30 and 100 μg/kg, i.t). 6 hours after LPS instillation, animals were exsanguinated under anaesthesia, and then trachea were cannulated and the lungs were lavaged with 5-ml aliquots of heparinised PBS (1 unit/ml) four times through tracheal cannula (total volume 20 ml). BAL (bronchoalveolar lavage) fluid was stored at 2-8° C. until assayed for total cell and differential leukocyte count. Bronchioalveolar fluid was centrifuged (500×g for 10 minutes) and the resulting cell pellet was resuspended in 0.5 ml of heparinized saline. The total number of white blood cells were determined in BAL fluid using a blood cell counter and were adjusted to 1×10^6 cell/ml. Differential cell count was calculated manually. One hundred microliters of the cell suspension was centrifuged using cytospin 3 to prepare a cell smear. The cell smear was stained with a blood staining solution for differentiation and slides were microscopically observed to identify eosinophil according to their morphological characteristics. The number of each cell type among 300 white blood cells in the cell smear was determined and expressed as a percentage. The total number of neutrophils in each BAL fluid was calculated.
Roflumilast and roflumilast N-oxide were administered intratracheally (i.t) at doses of 100, 30, and 10 μg/kg as 1:200; 1:500; and 1:1000 drug:lactose blends, respectively.

[2] = roflumilast n = 4438; count, second figure in brackets; cited from earlier work
neutrophil infiltration = assay: Acute cigarette smoke induced cell infiltration, neutrophils; type: in vivo, female Balb/c mice; conditions: for Percent inhibition in neutrophil infiltration: oral, day 1 to day 4
Description: (§1) Animals were acclimatized for seven days prior to the start of the experiment. The animals were randomly distributed to various groups based on their body weight. For oral administration of roflumilast and for intranasal administration of roflumilast N-oxide, roflumilast or roflumilast N-oxide were prepared as a suspension in a suitable vehicle. On day 1, mice were administered roflumilast N-oxide or roflumilast and after 1 hour, the animals were placed in a whole body exposure box. On day 1 and day 2, the mice were exposed to the mainstream smoke of 6 cigarettes, and 8 cigarettes on day 3 and day 4. Exposure to the smoke of each cigarette lasted for 10 minutes (cigarettes were completely burned in the first two minutes and followed by an air flow with animal ventilator, then 20 minutes exposure to fresh room air). After every second cigarette an additional break of 20 minutes with exposure to fresh room air was conducted. Control animals were exposed to room air chamber. From day 1 to day 4, the animals were administered roflumilast N-oxide or roflumilast. On day 5, 24 hours after the last cigarette smoke (CS) exposure, the animals were exsanguinated under anaesthesia, the trachea were cannulated and the lungs were lavaged with 0.5-ml aliquots of heparinised PBS (1 unit/ml) four times through tracheal cannula (total volume 2 ml). Bronchioalveolar (BAL) collected was stored at 2-8° C. until assayed for total cell and differential leukocyte count. BAL fluid was centrifuged (500×g for 10 minutes) and the resulting cell pellet was resuspended in 0.5 ml of heparinised saline. The total number of white blood cells was determined in BAL fluid and adjusted to 1×10^6 cell/ml. Differential cell count was calculated manually by diff-quick staining. Forty microliters of the cell suspension was centrifuged using cytospin 3 to prepare a cell smear. The cell smear was stained with a blood staining solution for differentiation and microscopically observed to identify cell type according to their morphological characteristics. The number of each cell type among 300 white blood cells in the cell smear were determined and expressed as a percentage, and the number of neutrophils and macrophages in each BAL fluid were calculated.
(§2) Roflumilast and roflumilast N-oxide as a suspension in polysorbate 80 (1% v/v) and methyl cellulose (MC) (0.5% w/v) were used for oral and intranasal administration respectively.

[3] = Lung microsome metabolic stability, human; type: in vitro ADME; conditions: 1 μM test item, 60 minutes, NADPH
Description: (§3) Metabolic stability studies were conducted using rat, dog and human lung microsomes. The protocol for the studies with rat, dog, and human lung microsomes (from Xenotech, USA) is provided below.
(§4) 0.4 mg protein was preincubated with 2 mM NADPH (cofactor) in phosphate buffer (pH˜7.4) for 15 minutes at […] and then added with 1 μM test item and incubated further for 60 minutes in triplicate. The reaction mixture was terminated with methanol containing an internal standard and centrifuged further to analyze the test item remaining in the supernatant by LC-MS/MS. The percent parent compound remaining was calculated in comparison with similar samples terminated at 0 minutes.

[4] = 7-day repeat dose safety study; type: in vivo, Wistar Rats
Description: In order to determine the safety of roflumilast N-oxide by inhalation compared to roflumilast by oral administration, a 7- and 14-day repeat dose safety study was conducted according to the protocol given in Table 5 below.

macrophage infiltration = assay: Acute cigarette smoke induced cell infiltration, macrophages; type: in vivo, female Balb/c mice; conditions: for Percent inhibition in macrophage infiltration: oral, day 1 to day 4
Description: as §1, §2

[5] = Lung microsome metabolic stability, rat; type: in vitro ADME; conditions: rat lung microsomes, 1 μM test item, 60 minutes, NADPH
Description: as §3, §4

[6] = Lung microsome metabolic stability, dog; type: in vitro ADME; conditions: dog lung microsomes, 1 μM test item, 60 minutes, NADPH
Description: as §3, §4

SMILES: O=C(Nc1c(Cl)cncc1Cl)c1ccc(OC(F)F)c(OCC2CC2)c1 [Roflumilast]
- ED50 ([1]; inhaled or nasal, intratracheal administration): 0.026 mg/kg
- ED50 ([1]; oral administration): 1.8 mg/kg
- Percent inhibition in neutrophil infiltration ([1]; intratracheal dry powder, 10 μg/kg, 30 minutes before LPS): 31.76%
- Percent inhibition in neutrophil infiltration ([1]; intratracheal dry powder, 30 μg/kg, 30 minutes before LPS): 60.47%
- Percent inhibition in neutrophil infiltration ([1]; intratracheal dry powder, 100 μg/kg, 30 minutes before LPS): 64.40%
- Percent inhibition in neutrophil infiltration ([1]; oral, 0.3 mg/kg, one hour before LPS, BAL 6 hours after LPS): −7.89%
- Percent inhibition in neutrophil infiltration ([1]; oral, 1 mg/kg, one hour before LPS, BAL 6 hours after LPS): 43.46%
- Percent inhibition in neutrophil infiltration ([1]; oral, 3 mg/kg, one hour before LPS, BAL 6 hours after LPS): 68.02%
- Percent inhibition in neutrophil infiltration ([1]; oral, 10 mg/kg, one hour before LPS, BAL 6 hours after LPS): 92.21%
- AEs: Back pain [2]: 142 (3.2)
- AEs: Decreased appetite [2]: 91 (2.1)
- AEs: Diarrhoea [2]: 420 (9.5)
- AEs: Dizziness [2]: 92 (2.1)
- AEs: Headache [2]: 195 (4.4)
- AEs: Influenza [2]: 124 (2.8)
- AEs: Insomnia [2]: 105 (2.4)
- AEs: Nausea [2]: 209 (4.7)
- AEs: Weight loss [2]: 331 (7.5)
- ED50 (neutrophil infiltration; Mus musculus, Neutrophil, oral administration, read-out: 50% inhibition (ED50) dose, neutrophil infiltration): 1.75 mg/kg
- Percent inhibition in neutrophil infiltration (neutrophil infiltration; 1 mg/kg (b.i.d. per FIG. 4)): 70.85%
- Percent inhibition in neutrophil infiltration (neutrophil infiltration; 3 mg/kg (b.i.d. per FIG. 4)): 73.69%
- Percent inhibition in neutrophil infiltration (neutrophil infiltration; 10 mg/kg (b.i.d. per FIG. 4)): 83.01%
- Percent Parent Compound Remaining, Human Non Smoker ([3]; human non smoker lung microsomes): 99.8%
- Percent Parent Compound Remaining, Human Smoker ([3]; human smoker lung microsomes): 98.8%
- MORTALITY ([4]; Oral, 10 mg/Kg/day, 7 days): 1M animal died on day 7
- Multiple of ED50 at which toxic ([4]; Wistar, rat, in vivo, 7 days): 5.5 fold
- Overall safety in repeat dose study ([4]; rat, in vivo, po, 10 mg/kg): showed significant toxicity
- CLINICAL CHEMISTRY ([4]; rat, in vivo, po, 10 mg/kg/day): Yes, reduced serum
- CLINICAL SIGNS ([4]; rat, in vivo, po, 10 mg/kg/day): Abnormal clinical
- GROSS PATHOLOGY ([4]; rat, in vivo, po, 10 mg/kg/day): Yes, treatment related
- HEMATOLOGY ([4]; rat, in vivo, po, 10 mg/kg/day): Yes, elevated WBC
- ED50 (macrophage infiltration; Mus musculus, Macrophage, oral administration, read-out: 50% inhibition (ED50) dose, macrophage infiltration): 3.5 mg/kg
- Percent inhibition in macrophage infiltration (macrophage infiltration; 1 mg/kg (b.i.d. per FIG. 4)): 22.2%
- Percent inhibition in macrophage infiltration (macrophage infiltration; 3 mg/kg (b.i.d. per FIG. 4)): 51.00%
- Percent inhibition in macrophage infiltration (macrophage infiltration; 10 mg/kg (b.i.d. per FIG. 4)): 69.11%
- Percent Parent Compound Remaining, Rat [5]: 97.1%
- Percent Parent Compound Remaining, Dog [6]: 97.4%
